Tests used:
GluN1-L135H/GluN2B = biological target: T1, GluN1-L135H/GluN2B (UniProt P35439+Q01097, L135H); assay: TEVC on Xenopus oocytes, ifenprodil site mutant; type: cell-based, rat GluN1, mouse GluN2B; details: 1 µM trans-OptoNAM-3 (dark)
T1 construct: expressed in transfected cells; host or cells: Xenopus laevis oocytes (nuclear cDNA injection)
Excerpt: (§1) We finally investigated the location of the OptoNAM-3 binding-site on the receptor. […] The binding site for GluN2B-selective antagonists at the GluN1/GluN2B NTD dimer interface contains two partially overlapping pockets that accommodate GluN2B-selective NAMs of distinct chemical scaffolds:[19] either scaffolds related to ifenprodil or scaffolds related to another GluN2B-selective NAM called EVT-101.[47]
(§2) We used cDNA coding for rat GluN1–1a (named GluN1 herein) (GenBank: U08261.1), rat GluN2A (GenBank: D13211.1), mouse GluN2B (GenBank: D10651.2), rat GluA1 flop (GenBank: M36418.2), and rat Myc-GluA2(Q)-flip (GenBank: AF164344.1) cloned into pcDNA3-based expression plasmids. GluK2 (GenBank: Z11548.1) corresponds to the fully RNA-edited version.[80] The GluN2B-ΔNTD construct is from ref[45] and GluN2B–N615K is from ref[81]. Single mutants GluN2B-Q110G and GluN1-L135H were from ref[19]. The GluA2 cDNA contains a Myc tag ([…]) fused between the signal peptide and the N-terminus sequences, and the GluA2 subunit is […] for its Q/R/N site (GluA2(Q)) to allow permeation of homomeric GluA2 receptors.[2] cDNAs coding for rat GluN2C (GenBank: M91563.1) and GluN2D subunits (GenBank: L31611.1) were in prK5 plasmids. […]

GluN1/GluN2B-Q110G = biological target: T2, GluN1/GluN2B-Q110G (UniProt P35439+Q01097, Q110G); assay: TEVC on Xenopus oocytes, EVT-101 site mutant; type: cell-based, rat GluN1, mouse GluN2B; details: 1 µM trans-OptoNAM-3 (dark)
T2 construct: expressed in transfected cells; host or cells: Xenopus laevis oocytes (nuclear cDNA injection)
T2 sequence (Q01097 27-1482 Q110G, other chains not shown): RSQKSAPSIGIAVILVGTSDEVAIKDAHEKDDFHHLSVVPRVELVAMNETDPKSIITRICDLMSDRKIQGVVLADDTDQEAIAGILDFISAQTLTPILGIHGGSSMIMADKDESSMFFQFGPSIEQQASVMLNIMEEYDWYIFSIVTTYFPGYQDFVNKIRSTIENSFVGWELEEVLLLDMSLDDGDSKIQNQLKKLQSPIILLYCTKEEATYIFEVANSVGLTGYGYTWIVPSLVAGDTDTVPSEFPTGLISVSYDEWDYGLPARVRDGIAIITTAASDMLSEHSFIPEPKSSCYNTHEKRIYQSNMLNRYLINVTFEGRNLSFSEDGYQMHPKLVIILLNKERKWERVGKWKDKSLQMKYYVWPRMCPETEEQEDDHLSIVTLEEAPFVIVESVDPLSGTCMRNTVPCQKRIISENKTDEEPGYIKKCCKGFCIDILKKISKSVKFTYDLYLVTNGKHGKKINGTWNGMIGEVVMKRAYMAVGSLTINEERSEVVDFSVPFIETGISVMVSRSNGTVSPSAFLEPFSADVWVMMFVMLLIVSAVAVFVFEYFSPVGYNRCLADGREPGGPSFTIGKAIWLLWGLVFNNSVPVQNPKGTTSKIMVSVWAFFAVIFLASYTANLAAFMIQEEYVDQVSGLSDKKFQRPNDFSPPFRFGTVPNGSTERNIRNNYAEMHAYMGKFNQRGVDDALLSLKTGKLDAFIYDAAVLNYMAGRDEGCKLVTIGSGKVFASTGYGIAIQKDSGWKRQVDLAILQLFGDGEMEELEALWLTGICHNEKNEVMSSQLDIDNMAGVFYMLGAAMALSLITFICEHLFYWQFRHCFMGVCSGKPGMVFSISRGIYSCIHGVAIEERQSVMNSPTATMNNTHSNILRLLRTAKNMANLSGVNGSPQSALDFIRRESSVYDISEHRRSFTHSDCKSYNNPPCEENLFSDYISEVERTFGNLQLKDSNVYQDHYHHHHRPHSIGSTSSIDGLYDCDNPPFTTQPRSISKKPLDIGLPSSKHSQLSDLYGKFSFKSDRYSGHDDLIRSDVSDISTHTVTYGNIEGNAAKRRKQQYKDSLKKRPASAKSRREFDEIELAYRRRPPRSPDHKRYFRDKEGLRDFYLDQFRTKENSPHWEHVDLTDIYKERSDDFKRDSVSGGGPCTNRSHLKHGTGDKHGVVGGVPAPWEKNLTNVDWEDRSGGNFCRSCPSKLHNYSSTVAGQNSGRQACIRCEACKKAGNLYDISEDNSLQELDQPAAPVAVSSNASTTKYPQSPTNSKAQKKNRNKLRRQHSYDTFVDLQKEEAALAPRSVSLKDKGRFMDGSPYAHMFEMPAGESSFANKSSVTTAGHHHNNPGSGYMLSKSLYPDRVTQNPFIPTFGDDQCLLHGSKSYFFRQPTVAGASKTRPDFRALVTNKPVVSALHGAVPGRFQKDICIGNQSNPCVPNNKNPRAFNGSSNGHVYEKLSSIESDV
Excerpt: as §1, §2

GluN1/GluN2D = biological target: T3, GluN1/GluN2D (Rattus norvegicus, UniProt P35439+Q62645); assay: TEVC on Xenopus oocytes, GluN1/GluN2D diheteromers; type: cell-based; details: 1 µM trans-OptoNAM-3 (dark); listed as trans-OptoNAM-3
T3 construct: expressed in transfected cells; host or cells: Xenopus laevis oocytes (nuclear cDNA injection)
T3 sequence (Q62645 28-1323, other chains not shown): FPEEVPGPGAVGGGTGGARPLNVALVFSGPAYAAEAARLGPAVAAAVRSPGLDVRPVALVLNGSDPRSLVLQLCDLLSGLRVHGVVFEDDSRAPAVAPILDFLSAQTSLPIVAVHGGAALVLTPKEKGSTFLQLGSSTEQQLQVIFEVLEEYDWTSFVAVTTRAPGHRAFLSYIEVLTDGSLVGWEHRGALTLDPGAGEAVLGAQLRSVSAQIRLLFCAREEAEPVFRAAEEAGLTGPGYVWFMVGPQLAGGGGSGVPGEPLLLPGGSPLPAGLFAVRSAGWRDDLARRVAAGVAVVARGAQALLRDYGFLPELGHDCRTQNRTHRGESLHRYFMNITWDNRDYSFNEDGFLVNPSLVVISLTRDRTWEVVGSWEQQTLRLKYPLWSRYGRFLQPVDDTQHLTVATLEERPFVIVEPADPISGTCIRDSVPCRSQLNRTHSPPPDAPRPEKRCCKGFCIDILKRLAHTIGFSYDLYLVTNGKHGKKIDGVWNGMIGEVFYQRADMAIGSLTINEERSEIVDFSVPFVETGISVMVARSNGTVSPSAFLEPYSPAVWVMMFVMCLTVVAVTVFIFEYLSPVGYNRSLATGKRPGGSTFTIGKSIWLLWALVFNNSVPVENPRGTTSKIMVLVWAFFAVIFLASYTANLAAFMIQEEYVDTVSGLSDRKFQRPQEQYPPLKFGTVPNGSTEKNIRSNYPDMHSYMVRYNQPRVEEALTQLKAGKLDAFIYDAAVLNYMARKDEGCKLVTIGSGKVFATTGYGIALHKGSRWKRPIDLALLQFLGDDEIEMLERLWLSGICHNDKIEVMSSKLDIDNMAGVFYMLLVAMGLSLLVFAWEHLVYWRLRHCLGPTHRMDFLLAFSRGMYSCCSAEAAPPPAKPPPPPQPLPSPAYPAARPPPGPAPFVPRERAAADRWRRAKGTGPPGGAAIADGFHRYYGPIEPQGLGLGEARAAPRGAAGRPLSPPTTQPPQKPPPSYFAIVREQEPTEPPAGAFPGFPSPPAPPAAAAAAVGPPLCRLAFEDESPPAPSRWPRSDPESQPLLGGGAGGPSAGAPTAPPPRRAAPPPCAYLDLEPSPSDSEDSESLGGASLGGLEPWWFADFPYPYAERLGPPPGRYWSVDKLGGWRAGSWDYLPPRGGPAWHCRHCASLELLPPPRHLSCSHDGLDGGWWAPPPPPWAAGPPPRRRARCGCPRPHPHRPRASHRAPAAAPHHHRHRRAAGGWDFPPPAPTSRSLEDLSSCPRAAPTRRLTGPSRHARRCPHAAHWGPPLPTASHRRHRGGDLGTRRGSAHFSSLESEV
Excerpt: NMDARs exist as multiple subtypes in the brain that are formed by the combination of two GluN1 and either two identical (diheteromers) or different (triheteromers) GluN2 (GluN2A-D) subunits.[1] We assessed the selectivity of trans-OptoNAM-3 (dark PSS) for the other NMDAR subtypes.
We used cDNA coding for rat GluN1–1a (named GluN1 herein) (GenBank: U08261.1), rat GluN2A (GenBank: D13211.1), mouse GluN2B (GenBank: D10651.2), rat GluA1 flop (GenBank: M36418.2), and rat Myc-GluA2(Q)-flip (GenBank: AF164344.1) cloned into pcDNA3-based expression plasmids. GluK2 (GenBank: Z11548.1) corresponds to the fully RNA-edited version.[80] The GluN2B-ΔNTD construct is from ref[45] and GluN2B–N615K is from ref[81]. Single mutants GluN2B-Q110G and GluN1-L135H were from ref[19]. The GluA2 cDNA contains a Myc tag ([…]) fused between the signal peptide and the N-terminus sequences, and the GluA2 subunit is […] for its Q/R/N site (GluA2(Q)) to allow permeation of homomeric GluA2 receptors.[2] cDNAs coding for rat GluN2C (GenBank: M91563.1) and GluN2D subunits (GenBank: L31611.1) were in prK5 plasmids.
Expression of recombinant NMDA receptors was obtained by oocyte nuclear coinjection of 37 nL of a mixture of cDNAs (at 30 ng/μL) coding for GluN1–1a and various GluN2 subunits (ratio 1:1). The protocol in ref[43] was followed for the expression of GluN1/GluN2A/GluN2B triheteromers. […]

T1 sequence (Q01097 27-1482, other chains not shown): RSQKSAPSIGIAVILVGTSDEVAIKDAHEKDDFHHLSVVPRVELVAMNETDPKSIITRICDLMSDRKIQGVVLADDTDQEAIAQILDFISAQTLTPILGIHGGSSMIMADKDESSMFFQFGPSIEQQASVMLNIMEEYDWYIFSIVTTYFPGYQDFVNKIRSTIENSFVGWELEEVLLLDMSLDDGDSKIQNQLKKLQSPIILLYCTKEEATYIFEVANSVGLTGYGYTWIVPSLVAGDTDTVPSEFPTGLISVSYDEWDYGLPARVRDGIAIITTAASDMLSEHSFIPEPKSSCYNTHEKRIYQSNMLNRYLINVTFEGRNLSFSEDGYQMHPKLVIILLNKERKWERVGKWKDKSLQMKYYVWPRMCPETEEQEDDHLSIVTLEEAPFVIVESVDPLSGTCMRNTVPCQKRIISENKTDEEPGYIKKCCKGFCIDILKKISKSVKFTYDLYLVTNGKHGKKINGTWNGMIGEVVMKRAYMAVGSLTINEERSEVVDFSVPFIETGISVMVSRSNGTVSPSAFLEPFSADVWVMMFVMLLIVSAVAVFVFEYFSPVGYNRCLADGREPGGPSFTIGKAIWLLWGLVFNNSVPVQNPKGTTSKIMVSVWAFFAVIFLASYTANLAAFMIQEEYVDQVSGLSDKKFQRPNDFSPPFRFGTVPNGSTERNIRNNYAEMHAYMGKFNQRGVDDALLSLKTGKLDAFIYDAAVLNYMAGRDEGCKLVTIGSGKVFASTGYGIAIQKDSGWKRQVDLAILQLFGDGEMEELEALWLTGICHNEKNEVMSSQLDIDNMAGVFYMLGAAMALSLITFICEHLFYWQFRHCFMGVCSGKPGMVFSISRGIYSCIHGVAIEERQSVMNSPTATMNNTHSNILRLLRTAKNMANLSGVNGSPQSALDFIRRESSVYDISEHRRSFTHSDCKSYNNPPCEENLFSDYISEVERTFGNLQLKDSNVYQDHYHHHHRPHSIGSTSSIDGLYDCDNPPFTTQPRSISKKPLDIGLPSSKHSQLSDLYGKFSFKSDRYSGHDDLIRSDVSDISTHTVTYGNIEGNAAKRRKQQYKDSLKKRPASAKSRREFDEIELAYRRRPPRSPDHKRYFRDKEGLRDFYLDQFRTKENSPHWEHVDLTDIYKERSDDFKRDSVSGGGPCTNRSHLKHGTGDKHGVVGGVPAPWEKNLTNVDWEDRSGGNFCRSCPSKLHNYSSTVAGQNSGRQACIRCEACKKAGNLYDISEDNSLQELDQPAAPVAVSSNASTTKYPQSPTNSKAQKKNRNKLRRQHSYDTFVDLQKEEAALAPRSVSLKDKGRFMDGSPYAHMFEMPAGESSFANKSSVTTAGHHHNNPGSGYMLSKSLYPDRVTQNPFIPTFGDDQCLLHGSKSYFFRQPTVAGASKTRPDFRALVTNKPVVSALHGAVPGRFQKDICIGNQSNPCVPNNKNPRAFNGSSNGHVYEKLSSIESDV

inhibition of GluN1-L135H/GluN2B (GluN1-L135H/GluN2B): 13.546%
inhibition of GluN1/GluN2B-Q110G (GluN1/GluN2B-Q110G): 65.503%
inhibition of GluN1/GluN2D (GluN1/GluN2D): 2.2% ± 0.2%
Structure (SMILES): c1ccc(/N=N/c2ccc(CCNc3ccncc3)cc2)cc1 [OptoNAM-3, (E)-N-(4-(Phenyldiazenyl)phenethyl)pyridin-4-amine]
